*1 amine or outer side, *2 acyl side, *3 side chain or, on linkers, in order; H or OH if unused. Where a SMILES comes first, the peptide text is derived from it. Side-chain parts run from the residue outwards. [ ]: non-standard residue; d: D form. The star is where a group is joined. C20 diacid = O=C(O)CCCCCCCCCCCCCCCCCCC(=O)*; C18 diacid = O=C(O)CCCCCCCCCCCCCCCCC(=O)*; C16 diacid = O=C(O)CCCCCCCCCCCCCCC(=O)*; γGlu = O=C(O)[C@H](CCC(=O)[*:2])N[*:1]; NMeI = CC[C@H](C)[C@H](NC)C(=O)O; Pentanoyl = CCCCC(=O)*; AEEA = NCCOCCOCC(=O)O; Aib = CC(C)(N)C(=O)O
tested on: human LAD2 cells; assay type: cell-based
Description: LAD2 cells (20000 cells/well, 96-well plates and 10,000 cells/well in 384-well plates) were incubated with compounds for 30 min. The R-hexosaminidase released into the supernatants and in cell lysates was quantified using the fluorogenic substrate 4-methylumbelliferyl-N-acetyl-b-D-glucosaminide.
On the day of the assay, the lyophilized peptides were dissolved in DMSO and/or PBS 1× pH 7.4, to obtain stock solutions. The stock solutions were used to prepare working serial dilutions to have final concentrations in assay ranging from 50, 100 or 300 to 0.1 or 0.001 μM. Each peptide was tested in biological duplicates. When compounds were dissolved in DMSO, the final solvent concentration in assay was 0.5% (v/v).
The percentage of degranulation, expressed as % of R-hexosaminidase release, was calculated by dividing the fluorescence signal of the supernatant by the sum of the signals from the supernatant and cell pellet (lysed with Triton X-100, final 1%) and multiplying by 100.
Dose-response curves were generated by plotting the % of R-hexosaminidase release versus total release of cells treated with triton (y-axis) against the concentrations of peptides tested (x-axis). The Mast Cell Degranulation (MCD) EC50 values and standard errors were calculated using XLfit 5.5.0.5 based on the following equation:
4 Parameter Sigmoidal Model: f=(A+((B−A)/(1+((C/x)^D))))
where A=Emin, B=Emax, C=EC50 and D=slope

SMILES	EC50 [µM]
CC[C@H](C)[C@H](NC(C)=O)C(=O)N[C@H](C(=O)N[C@@H](CC(C)C)C(=O)N[C@@H](CO)C(=O)N[C@@H](CC(C)C)C(=O)N[C@@H](CC(=O)O)C(=O)N[C@@H](C(=O)N1CCC[C@H]1C(=O)N[C@H](C(=O)N[C@@H](CCCCN)C(=O)N[C@@H](CC(C)C)C(=O)N[C@@H](CCCCNC(=O)CC[C@H](NC(=O)CCCCCCCCCCCCCCC(=O)O)C(=O)O)C(=O)N[C@@H](CCCCN)C(=O)N[C@H](C(=O)N[C@@H](CC(C)C)C(=O)N[C@@H](CC(C)C)C(=O)N[C@@H](CCC(=O)O)C(=O)N[C@@H](CCC(N)=O)C(=O)N[C@@H](CCC(=O)O)C(=O)N[C@@H](CCCCN)C(=O)N[C@@H](CCC(N)=O)C(=O)N[C@@H](CCCCN)C(=O)NC(C)(C)C(=O)N[C@@H](CCC(N)=O)C(=O)N[C@@H](CCCNC(=N)N)C(=O)N[C@@H](CCC(=O)O)C(=O)N[C@@H](CCC(N)=O)C(=O)N[C@@H](C)C(=O)N[C@@H](CCC(=O)O)C(=O)N[C@H](C(=O)N[C@@H](CC(N)=O)C(=O)NC(C)(C)C(=O)N[C@@H](CCC(N)=O)C(=O)N[C@H](C(=O)N[C@@H](CC(C)C)C(=O)N[C@@H](C)C(=O)N[C@@H](CCC(N)=O)C(=O)N[C@H](C(N)=O)C(C)C)[C@@H](C)CC)[C@@H](C)O)[C@@H](C)CC)[C@@H](C)CC)C(C)C)C(C)C [Cmpd 162] (Ac-IVLSLD[dV]PIKLK([γGlu-C16 diacid])KILLEQEKQK[Aib]QREQAETN[Aib]QILAQV-NH2)	> 50
CC[C@H](C)[C@H](NC)C(=O)N[C@H](C(=O)N[C@@H](CC(C)C)C(=O)N[C@@H](CO)C(=O)N[C@@H](CC(C)C)C(=O)N[C@@H](CC(=O)O)C(=O)N[C@@H](C(=O)N1CCC[C@H]1C(=O)N[C@H](C(=O)N[C@@H](CCCCN)C(=O)N[C@@H](CC(C)C)C(=O)N[C@@H](CCCCNC(=O)COCCOCCNC(=O)COCCOCCNC(=O)CC[C@H](NC(=O)CCCCCCCCCCCCCCCCC(=O)O)C(=O)O)C(=O)N[C@@H](CCCCN)C(=O)N[C@H](C(=O)N[C@@H](CC(C)C)C(=O)N[C@@H](CC(C)C)C(=O)N[C@@H](CCC(=O)O)C(=O)N[C@@H](CCC(N)=O)C(=O)N[C@@H](CCC(=O)O)C(=O)N[C@@H](CCCCN)C(=O)N[C@@H](CCC(N)=O)C(=O)N[C@@H](CCCCN)C(=O)N[C@@H](CCCCN)C(=O)N[C@@H](CCC(N)=O)C(=O)N[C@@H](CCCNC(=N)N)C(=O)N[C@@H](CCC(=O)O)C(=O)N[C@@H](CCC(N)=O)C(=O)N[C@@H](C)C(=O)N[C@@H](CCC(=O)O)C(=O)N[C@H](C(=O)N[C@@H](CC(N)=O)C(=O)NC(C)(C)C(=O)N[C@@H](CCC(N)=O)C(=O)N[C@H](C(=O)N[C@@H](CC(C)C)C(=O)N[C@@H](C)C(=O)N[C@@H](CCC(N)=O)C(=O)N[C@H](C(N)=O)C(C)C)[C@@H](C)CC)[C@@H](C)O)[C@@H](C)CC)[C@@H](C)CC)C(C)C)C(C)C [Cmpd 118] (H-[NMeI]VLSLD[dV]PIKLK([AEEA-AEEA-γGlu-C18 diacid])KILLEQEKQKKQREQAETN[Aib]QILAQV-NH2)	> 100
CC[C@H](C)[C@H](NC(C)=O)C(=O)N[C@H](C(=O)N[C@@H](CC(C)C)C(=O)N[C@@H](CO)C(=O)N[C@@H](CC(C)C)C(=O)N[C@@H](CC(=O)O)C(=O)N[C@@H](C(=O)N1CCC[C@H]1C(=O)N[C@H](C(=O)N[C@@H](CCCCN)C(=O)N[C@@H](CC(C)C)C(=O)N[C@@H](CCCCNC(=O)CC[C@H](NC(=O)CCCCCCCCCCCCCCC(=O)O)C(=O)O)C(=O)N[C@@H](CCCCN)C(=O)N[C@H](C(=O)N[C@@H](CC(C)C)C(=O)N[C@@H](CC(C)C)C(=O)N[C@@H](CCC(=O)O)C(=O)N[C@@H](CCC(N)=O)C(=O)N[C@@H](CCC(=O)O)C(=O)N[C@@H](CCCCN)C(=O)N[C@@H](CCC(N)=O)C(=O)N[C@@H](C)C(=O)N[C@@H](CCCCN)C(=O)N[C@@H](CCC(N)=O)C(=O)N[C@@H](CCCNC(=N)N)C(=O)N[C@@H](CCC(=O)O)C(=O)N[C@@H](CCC(N)=O)C(=O)N[C@@H](C)C(=O)N[C@@H](CCC(=O)O)C(=O)N[C@H](C(=O)N[C@@H](CC(N)=O)C(=O)NC(C)(C)C(=O)N[C@@H](CCC(N)=O)C(=O)N[C@H](C(=O)N[C@@H](CC(C)C)C(=O)N[C@@H](C)C(=O)N[C@@H](CCC(N)=O)C(=O)N[C@H](C(N)=O)C(C)C)[C@@H](C)CC)[C@@H](C)O)[C@@H](C)CC)[C@@H](C)CC)C(C)C)C(C)C [Cmpd 166] (Ac-IVLSLD[dV]PIKLK([γGlu-C16 diacid])KILLEQEKQAKQREQAETN[Aib]QILAQV-NH2)	> 100
CCCCC(=O)N[C@H](C(=O)N[C@@H](CC(C)C)C(=O)N[C@@H](CO)C(=O)N[C@@H](CC(C)C)C(=O)N[C@@H](CC(=O)O)C(=O)N[C@@H](C(=O)N1CCC[C@H]1C(=O)N[C@H](C(=O)N[C@@H](CCCCN)C(=O)N[C@@H](CC(C)C)C(=O)N[C@@H](CCCCNC(=O)CC[C@H](NC(=O)CCCCCCCCCCCCCCCCCCC(=O)O)C(=O)O)C(=O)N[C@@H](CCCCN)C(=O)N[C@H](C(=O)N[C@@H](CC(C)C)C(=O)N[C@@H](CC(C)C)C(=O)N[C@@H](CCC(=O)O)C(=O)N[C@@H](CCC(N)=O)C(=O)N[C@@H](CCC(=O)O)C(=O)N[C@@H](CCCCN)C(=O)N[C@@H](CCC(N)=O)C(=O)N[C@@H](CCCCN)C(=O)N[C@@H](CCCCN)C(=O)N[C@@H](CCC(N)=O)C(=O)N[C@@H](CCCNC(=N)N)C(=O)N[C@@H](CCC(=O)O)C(=O)N[C@@H](CCC(N)=O)C(=O)N[C@@H](C)C(=O)N[C@@H](CCC(=O)O)C(=O)N[C@H](C(=O)N[C@@H](CC(N)=O)C(=O)NC(C)(C)C(=O)N[C@@H](CCC(N)=O)C(=O)N[C@H](C(=O)N[C@@H](CC(C)C)C(=O)N[C@@H](C)C(=O)N[C@@H](CCC(N)=O)C(=O)N[C@H](C(N)=O)C(C)C)[C@@H](C)CC)[C@@H](C)O)[C@@H](C)CC)[C@@H](C)CC)C(C)C)C(C)C [Cmpd 219] (Pentanoyl-VLSLD[dV]PIKLK([γGlu-C20 diacid])KILLEQEKQKKQREQAETN[Aib]QILAQV-NH2)	88.2
CC[C@H](C)[C@H](NC(C)=O)C(=O)N[C@H](C(=O)N[C@@H](CC(C)C)C(=O)N[C@@H](CO)C(=O)N[C@@H](CC(C)C)C(=O)N[C@@H](CC(=O)O)C(=O)N[C@@H](C(=O)N1CCC[C@H]1C(=O)N[C@H](C(=O)N[C@@H](CCCCN)C(=O)N[C@@H](CC(C)C)C(=O)N[C@@H](CCCCNC(=O)COCCOCCNC(=O)COCCOCCNC(=O)CC[C@H](NC(=O)CCCCCCCCCCCCCCCCCCC(=O)O)C(=O)O)C(=O)N[C@@H](CCCCN)C(=O)N[C@H](C(=O)N[C@@H](CC(C)C)C(=O)N[C@@H](CC(C)C)C(=O)N[C@@H](CCC(=O)O)C(=O)N[C@@H](CCC(N)=O)C(=O)N[C@@H](CCC(=O)O)C(=O)N[C@@H](CCCCN)C(=O)N[C@@H](CCC(N)=O)C(=O)N[C@@H](CCCCN)C(=O)N[C@@H](CCCCN)C(=O)N[C@@H](CCC(N)=O)C(=O)N[C@@H](CCCNC(=N)N)C(=O)N[C@@H](CCC(=O)O)C(=O)N[C@@H](CCC(N)=O)C(=O)N[C@@H](C)C(=O)N[C@@H](CCC(=O)O)C(=O)N[C@H](C(=O)N[C@@H](CC(N)=O)C(=O)NC(C)(C)C(=O)N[C@@H](CCC(N)=O)C(=O)N[C@H](C(=O)N[C@@H](CC(C)C)C(=O)N[C@@H](C)C(=O)N[C@@H](CCC(N)=O)C(=O)N[C@H](C(N)=O)C(C)C)[C@@H](C)CC)[C@@H](C)O)[C@@H](C)CC)[C@@H](C)CC)C(C)C)C(C)C [Cmpd 238] (Ac-IVLSLD[dV]PIKLK([AEEA-AEEA-γGlu-C20 diacid])KILLEQEKQKKQREQAETN[Aib]QILAQV-NH2)	36.7
CC[C@H](C)[C@H](NC)C(=O)N[C@H](C(=O)N[C@@H](CC(C)C)C(=O)N[C@@H](CO)C(=O)N[C@@H](CC(C)C)C(=O)N[C@@H](CC(=O)O)C(=O)N[C@@H](C(=O)N1CCC[C@H]1C(=O)N[C@H](C(=O)N[C@@H](CCCCN)C(=O)N[C@@H](CC(C)C)C(=O)N[C@@H](CCCCNC(=O)CC[C@H](NC(=O)CCCCCCCCCCCCCCCCCCC(=O)O)C(=O)O)C(=O)N[C@@H](CCCCN)C(=O)N[C@H](C(=O)N[C@@H](CC(C)C)C(=O)N[C@@H](CC(C)C)C(=O)N[C@@H](CCC(=O)O)C(=O)N[C@@H](CCC(N)=O)C(=O)N[C@@H](CCC(=O)O)C(=O)N[C@@H](CCCCN)C(=O)N[C@@H](CCC(N)=O)C(=O)N[C@@H](CCCCN)C(=O)N[C@@H](C)C(=O)N[C@@H](CCC(N)=O)C(=O)N[C@@H](CCCNC(=N)N)C(=O)N[C@@H](CCC(=O)O)C(=O)N[C@@H](CCC(N)=O)C(=O)N[C@@H](C)C(=O)N[C@@H](CCC(=O)O)C(=O)N[C@H](C(=O)N[C@@H](CC(N)=O)C(=O)NC(C)(C)C(=O)N[C@@H](CCC(N)=O)C(=O)N[C@H](C(=O)N[C@@H](CC(C)C)C(=O)N[C@@H](C)C(=O)N[C@@H](CCC(N)=O)C(=O)N[C@H](C(N)=O)C(C)C)[C@@H](C)CC)[C@@H](C)O)[C@@H](C)CC)[C@@H](C)CC)C(C)C)C(C)C [Cmpd 217] (H-[NMeI]VLSLD[dV]PIKLK([γGlu-C20 diacid])KILLEQEKQKAQREQAETN[Aib]QILAQV-NH2)	> 300

Reference: patent US20260001928A1 (CORTERIA PHARMACEUTICALS, priority 2022, published 2026)
